Laboratory results as given in patent publication US20220235064A1 (WELLMARKER BIO CO., LTD., priority 2019, published 2022).

Target: T1, RON tyrosine kinase (Homo sapiens, UniProt Q04912)
T1 construct: purchased Carna Bioscience
Test: Enzyme inhibitory activity against RON tyrosine kinase (TR-FRET)
Format: biochemical
Details: RON (Carna Bioscience)
Experimental: Experimental Example 1: Measurement of Enzyme Inhibitory Activity Against RON Tyrosine Kinase
To measure enzyme inhibitory activity of the example compounds against RON, IC50 values of the compounds were measured using fluorescence resonance energy transfer (FRET).
Specifically, first, RON (Carna Bioscience) was diluted in a kinase assay buffer (50 mM HEPES pH 7.5, 1 mM EGTA, 10 mM MgCl2, 2 mM DTT, and 0.01% Tween-20) to be at a concentration (0.4 nM) that is twice the final reaction concentration. The dilute was added to a 384-well-plate at 5 μl per well. Each of the example compounds was prepared at a concentration of 1 mM in 100% DMSO and diluted 8 times in a stepwise manner through 10-fold dilution. Each compound was diluted in a kinase assay buffer to be at a concentration that is 4 times the final reaction concentration. The dilute was added to a 384-well-plate at 2.5 μl per well, and incubation was performed at room temperature for 15 minutes.
Thereafter, an ATP solution (Sigma Aldrich) prepared at a concentration of 0.25 M was diluted in a kinase assay buffer to be at a concentration (60 μM) that is 4 times the final reaction concentration. Dilution of a tyrosine peptide substrate (Perkin-Elmer) was performed therein to be at a concentration (400 nM) that is 4 times the final reaction concentration. The dilute was added to a 384-well-plate at 2.5 µl per well. Reaction was allowed to proceed for 60 minutes by incubating the 384-well-plate at room temperature. Thereafter, EDTA (Sigma Aldrich) was diluted in a TR-FRET detection buffer (Perkin-Elmer) to be at a concentration (20 mM) that is twice the final reaction concentration. Dilution of a Europium-containing phosphotyrosine antibody (Perkin-Elmer) was performed in the diluted EDTA solution to be at a concentration (4 nM) that is twice the final reaction concentration, so that a stop solution for RON reaction was prepared.
The stop solution was added to the 384-well-plate at 10 μl per well to quench the reaction, and incubation was performed at room temperature for 60 minutes. Then, the 384-well-plate was read on a Victor X5 (Perkin-Elmer) plate reader. Here, the excitation wavelength was 340 nm, and the emission wavelengths were 620 nm and 665 nm. An IC50 value of the compound was derived using GraphPad Prism 5 program, in which the IC50 was derived by expressing emission energy at the wavelength of 665 nm as a function of the compound concentration.

T1 sequence (Q04912 25-1400): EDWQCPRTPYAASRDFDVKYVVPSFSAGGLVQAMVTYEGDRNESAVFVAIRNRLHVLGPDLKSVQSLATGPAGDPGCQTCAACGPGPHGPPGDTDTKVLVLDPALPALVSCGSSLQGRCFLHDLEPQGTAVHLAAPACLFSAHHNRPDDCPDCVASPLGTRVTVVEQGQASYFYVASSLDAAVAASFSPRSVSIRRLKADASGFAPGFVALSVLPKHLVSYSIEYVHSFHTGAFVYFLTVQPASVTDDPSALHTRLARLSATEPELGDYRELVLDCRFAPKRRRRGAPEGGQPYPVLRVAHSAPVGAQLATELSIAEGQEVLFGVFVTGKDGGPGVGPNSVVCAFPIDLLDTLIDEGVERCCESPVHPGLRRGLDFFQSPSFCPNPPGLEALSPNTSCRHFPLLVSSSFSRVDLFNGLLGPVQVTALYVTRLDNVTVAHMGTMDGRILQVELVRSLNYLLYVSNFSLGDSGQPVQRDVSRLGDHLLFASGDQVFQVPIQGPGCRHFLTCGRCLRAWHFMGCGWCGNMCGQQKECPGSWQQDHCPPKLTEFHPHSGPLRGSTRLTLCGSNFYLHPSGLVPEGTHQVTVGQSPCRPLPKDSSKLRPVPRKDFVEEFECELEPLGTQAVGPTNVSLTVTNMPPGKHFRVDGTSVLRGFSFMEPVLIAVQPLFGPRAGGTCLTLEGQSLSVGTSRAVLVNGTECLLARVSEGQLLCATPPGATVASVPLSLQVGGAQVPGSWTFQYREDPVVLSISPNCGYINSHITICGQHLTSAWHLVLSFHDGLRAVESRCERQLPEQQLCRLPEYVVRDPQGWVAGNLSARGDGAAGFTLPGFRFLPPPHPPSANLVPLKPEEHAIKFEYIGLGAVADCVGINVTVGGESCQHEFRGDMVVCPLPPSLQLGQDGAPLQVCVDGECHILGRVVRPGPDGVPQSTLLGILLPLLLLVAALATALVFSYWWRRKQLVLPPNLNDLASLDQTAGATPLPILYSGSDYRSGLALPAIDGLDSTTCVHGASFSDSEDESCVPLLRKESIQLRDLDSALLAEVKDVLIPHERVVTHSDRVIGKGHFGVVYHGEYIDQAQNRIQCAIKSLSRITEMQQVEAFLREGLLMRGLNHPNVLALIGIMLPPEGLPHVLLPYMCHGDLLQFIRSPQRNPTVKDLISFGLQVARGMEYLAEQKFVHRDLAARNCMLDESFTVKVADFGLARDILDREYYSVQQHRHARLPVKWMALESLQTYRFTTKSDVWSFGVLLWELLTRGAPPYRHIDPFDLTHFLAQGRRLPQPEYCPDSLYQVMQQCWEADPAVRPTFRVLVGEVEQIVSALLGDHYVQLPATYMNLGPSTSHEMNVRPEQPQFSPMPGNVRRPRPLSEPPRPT

Row | Structure (SMILES) | IC50 [nM]
1 | O=C(Nc1ccc(Oc2ccnc3cc(OCCCN4CCOCC4)c(C(F)(F)F)cc23)c(F)c1)c1c2c(cn(-c3ccc(F)cc3)c1=O)CCO2 [Example 170, N-(3-Fluoro-4-((7-(3-morpholinopropoxy)-6-(trifluoromethyl)quinolin-4-yl)oxy)phenyl)-5-(4-fluorophenyl)-6-oxo-2,3,5,6-tetrahydrofuro[3,2-c]pyridine-7-carboxamide] | > 100
2 | O=C(Nc1ccc(Oc2ccnc3[nH]ncc23)c(F)c1)c1c2c(cn(-c3ccc(F)cc3)c1=O)CCO2 [Example 68, N-(4-((1H-pyrazolo[3,4-b]pyridin-4-yl)oxy)-3-fluorophenyl)-5-(4-fluorophenyl)-6-oxo-2,3,5,6-tetrahydrofuro[3,2-c]pyridine-7-carboxamide] | 1.57
3 | COc1cc2nccc(Oc3ccc(NC(=O)c4c5c(cn(-c6ccc(C(F)(F)F)cc6)c4=O)CCO5)cc3F)c2cc1OC [Example 42, N-(4-((6,7-Dimethoxyquinolin-4-yl)oxy)-3-fluorophenyl)-6-oxo-5-(4-(trifluoromethyl)phenyl)-2,3,5,6-tetrahydrofuro[3,2-c]pyridine-7-carboxamide] | 30
4 | O=C(Nc1ccc(Oc2cc(NC3CCOCC3)ncn2)c(F)c1)c1c2c(cn(-c3ccc(F)cc3)c1=O)CCO2 [Example 59] | 2.24
5 | O=C(Nc1ccc(Oc2ccnc3cc(OCCN4CCOCC4)c(C(F)(F)F)cc23)c(F)c1)c1c2c(cn(-c3ccc(F)cc3)c1=O)CCO2 [Example 169, N-(3-Fluoro-4-((7-(2-morpholinoethoxy)-6-(trifluoromethyl)quinolin-4-yl)oxy)phenyl)-5-(4-fluorophenyl)-6-oxo-2,3,5,6-tetrahydrofuro[3,2-c]pyridine-7-carboxamide] | > 100
6 | Nc1nccc(Oc2ccc(NC(=O)c3c4c(cn(-c5ccc(F)cc5)c3=O)CCO4)cc2F)n1 [Example 57, N-(4-((2-Aminopyrimidin-4-yl)oxy)-3-fluorophenyl)-5-(4-fluorophenyl)-6-oxo-2,3,5,6-tetrahydrofuro[3,2-c]pyridine-7-carboxamide] | 18.2
7 | CN1CCC(Nc2cc(Oc3ccc(NC(=O)c4c5c(cn(-c6ccc(F)cc6)c4=O)CCO5)cc3F)ncn2)CC1 [Example 61, N-(3-Fluoro-4-((6-((1-methylpiperidin-4-yl)amino)pyrimidin-4-yl)oxy)phenyl)-5-(4-fluorophenyl)-6-oxo-2,3,5,6-tetrahydrofuro[3,2-c]pyridine-7-carboxamide] | 156
8 | O=C(Nc1ccc(Oc2ncnc3c2CCN3)c(F)c1)c1c2c(cn(-c3ccc(F)cc3)c1=O)CCO2 [Example 74, N-(4-((6,7-Dihydro-5H-pyrrolo[2,3-d]pyrimidin-4-yl)oxy)-3-fluorophenyl)-5-(4-fluorophenyl)-6-oxo-2,3,5,6-tetrahydrofuro[3,2-c]pyridine-7-carboxamide] | 9.75
9 | O=C(Nc1ccc(Oc2ccnc(NC3CCOCC3)c2)c(F)c1)c1c2c(cn(-c3ccc(F)cc3)c1=O)CCO2 [Example 60, N-(3-Fluoro-4-((2-((tetrahydro-2H-pyran-4-yl)amino)pyridin-4-yl)oxy)phenyl)-5-(4-fluorophenyl)-6-oxo-2,3,5,6-tetrahydrofuro[3,2-c]pyridine-7-carboxamide] | 13.1
10 | O=C(Nc1ccc(Oc2ccnc3[nH]cnc23)c(F)c1)c1c2c(cn(-c3ccc(F)cc3)c1=O)CCO2 [Example 66, N-(4-((3H-imidazo[4,5-b]pyridin-7-yl)oxy)-3-fluorophenyl)-5-(4-fluorophenyl)-6-oxo-2,3,5,6-tetrahydrofuro[3,2-c]pyridine-7-carboxamide] | 8.63
11 | O=C(Nc1ccc(Oc2ccnc3ccoc23)c(F)c1)c1c2c(cn(-c3ccc(F)cc3)c1=O)CCO2 [Example 69, N-(3-Fluoro-4-((furo[3,2-b]pyridin-7-yl)oxy)phenyl)-5-(4-fluorophenyl)-6-oxo-2,3,5,6-tetrahydrofuro[3,2-c]pyridine-7-carboxamide] | 3.29
12 | NC(=O)c1nccc(Oc2ccc(NC(=O)c3c4c(cn(-c5ccc(F)cc5)c3=O)CCO4)cc2F)c1Cl [Example 54, N-(4-((2-Carbamoyl-3-chloropyridin-4-yl)oxy)-3-fluorophenyl)-5-(4-fluorophenyl)-6-oxo-2,3,5,6-tetrahydrofuro[3,2-c]pyridine-7-carboxamide] | > 1000
13 | Nc1nccc(Oc2ccc(NC(=O)c3c4c(cn(-c5ccc(F)cc5)c3=O)CCO4)cc2F)c1Cl [Example 55, N-(4-((2-Amino-3-chloropyridin-4-yl)oxy)-3-fluorophenyl)-5-(4-fluorophenyl)-6-oxo-2,3,5,6-tetrahydrofuro[3,2-c]pyridine-7-carboxamide] | 2.24
14 | Nc1cc(Oc2ccc(NC(=O)c3c4c(cn(-c5ccc(F)cc5)c3=O)CCO4)cc2F)ncn1 [Example 58, N-(4-((6-Aminopyrimidin-4-yl)oxy)-3-fluorophenyl)-5-(4-fluorophenyl)-6-oxo-2,3,5,6-tetrahydrofuro[3,2-c]pyridine-7-carboxamide] | 25
15 | Cc1nc2c(Oc3ccc(NC(=O)c4c5c(cn(-c6ccc(F)cc6)c4=O)CCO5)cc3F)ccnc2[nH]1 [Example 67, N-(3-Fluoro-4-((2-methyl-3H-imidazo[4,5-b]pyridin-7-yl)oxy)phenyl)-5-(4-fluorophenyl)-6-oxo-2,3,5,6-tetrahydrofuro[3,2-c]pyridine-7-carboxamide] | 15
16 | O=C(Nc1ccc(Oc2ccnc3[nH]ccc23)c(F)c1)c1c2c(cn(-c3ccc(F)cc3)c1=O)CCO2 [Example 65, N-(4-((1H-pyrrolo[2,3-b]pyridin-4-yl)oxy)-3-fluorophenyl)-5-(4-fluorophenyl)-6-oxo-2,3,5,6-tetrahydrofuro[3,2-c]pyridine-7-carboxamide] | 1.72
17 | O=C(Nc1ccc(Oc2ccnc3ccnn23)c(F)c1)c1c2c(cn(-c3ccc(F)cc3)c1=O)CCO2 [Example 75, N-(3-Fluoro-4-(pyrazolo[1,5-a]pyrimidin-7-yloxy)phenyl)-5-(4-fluorophenyl)-6-oxo-2,3,5,6-tetrahydro[3,2-c]pyridine-7-carboxamide] | 2800
18 | O=C(Nc1ccc(Oc2ccnc3cc(OCCN4CCOCC4)ccc23)c(F)c1)c1c2c(cn(-c3ccc(F)cc3)c1=O)CCO2 [Example 157, N-(3-Fluoro-4-((7-(2-morpholinylethoxy)quinolin-4-yl)oxy)phenyl)-5-(4-fluorophenyl)-6-oxo-2,3,5,6-tetrahydrofuro[3,2-c]pyridine-7-carboxamide] | 1.32
19 | O=C(Nc1ccc(Oc2ncnc3[nH]cnc23)c(F)c1)c1c2c(cn(-c3ccc(F)cc3)c1=O)CCO2 [Example 72, N-(4-((9H-purin-6-yl)oxy)-3-fluorophenyl)-5-(4-fluorophenyl)-6-oxo-2,3,5,6-tetrahydrofuro[3,2-c]pyridine-7-carboxamide] | 46.2
20 | Cc1cc2c(Oc3ccc(NC(=O)c4c5c(cn(-c6ccc(F)cc6)c4=O)CCO5)cc3F)ccnc2[nH]1 [Example 70, N-(3-Fluoro-4-((2-methyl-1H-pyrrolo[2,3-b]pyridin-4-yl)oxy)-3-fluorophenyl)-5-(4-fluorophenyl)-6-oxo-2,3,5,6-tetrahydrofuro[3,2-c]pyridine-7-carboxamide] | 3.66
21 | COc1cc2nccc(Oc3ccc(NC(=O)c4c5c(cn(-c6cccc(F)c6)c4=O)CCO5)cc3F)c2cc1OC [Example 43, N-(4-((6,7-Dimethoxyquinolin-4-yl)oxy)-3-fluorophenyl)-6-oxo-5-(3-fluorophenyl)-2,3,5,6-tetrahydrofuro[3,2-c]pyridine-7-carboxamide] | 5.13
22 | O=C(Nc1ccc(Oc2ccnc3cc(-c4ccc(CN5CCOCC5)cn4)sc23)c(F)c1)c1c2c(cn(-c3ccc(F)cc3)c1=O)CCC2 [Example 7] | 34.9
23 | O=C(Nc1ccc(Oc2ccnc3cc(OCCCN4CCOCC4)ccc23)c(F)c1)c1c2c(cn(-c3ccc(F)cc3)c1=O)CCC2 [Example 159, N-(3-Fluoro-4-((7-(3-morpholinopropoxy)quinolin-4-yl)oxy)phenyl)-2-(4-fluorophenyl)-3-oxo-3,5,6,7-tetrahydro-2H-cyclopenta[c]pyridine-4-carboxamide] | 11.9
24 | Nc1cc(Oc2ccc(NC(=O)c3c4c(cn(-c5ccc(F)cc5)c3=O)CCO4)cc2F)ccn1 [Example 56, N-(4-((2-Aminopyridin-4-yl)oxy)-3-fluorophenyl)-5-(4-fluorophenyl)-6-oxo-2,3,5,6-tetrahydrofuro[3,2-c]pyridine-7-carboxamide] | 11.9
